From publication PMC5712521, “Dendrogenin A drives LXR to trigger lethal autophagy in cancers” (Nature Communications, 2017)

Columns and labels:
A375 cells = assay: Clonogenicity inhibition; assay type: cell-based; conditions: Homo sapiens, A-375; A375 (H); 72 h; read-out: Clono IC50
Source text: (§1) Supplementary Fig. 1. a DDA inhibited m elanom a colony form ation. Melanom a cells were […]
(§2) a 0.5% solution of crystal violet in water and analyzed by microscopy. Images are representative of 5 independent experiments. b Evaluation of DDA-induced cytotoxicity (cytotox) and clonogenicity (clono) inhibition in a subset of human (H) and mouse (M) m elanom a cell lines. T he BRaf status in m elanom a cells lines is shown. […]

WM-266-4 cells = assay: Clonogenicity inhibition; assay type: cell-based; conditions: Homo sapiens; WM-266-4 (H); 72 h; read-out: Clono IC50
Source text: as §1, §2

WM35 cells = assay: Clonogenicity inhibition; assay type: cell-based; conditions: Homo sapiens; WM35 (H); 72 h; read-out: Clono IC50
Source text: as §1, §2

HL60 cells = assay: Immunoblot densitometry; assay type: cell-based, human; conditions: 5 µM DDA, 24 h
Description: Immunoblotting was carried out as described previously. Proteins were separated on SDS-PAGE gels, electro-transferred onto polyvinylidene difluoride membranes and incubated overnight at 4 °C with the following antibodies: anti-Atg3, anti-Atg5 (D1G9), anti-Atg7 (D12B11), anti-Beclin (D40C5), anti-caspase-3 (Cell Signaling), anti-Bcl-2 (Millipore), anti-Bax (Millipore), anti-LC3 (Sigma-Aldrich), anti-LXRα (SantaCruz), anti-LXRβ (SantaCruz), anti-Nur77 (Active motif), anti-NOR1 (R&D systems), anti-PARP (Cell Signaling), anti-Vps34 (Cell Signaling), or anti-Actin (Millipore). For visualization, an ECL plus kit (Amersham Biosciences) was used, and chemiluminescence was measured by autoradiography (Supplementary Fig. 9). Specific bands were quantified with ImageQuant software. […]
(n=16- 20 mice/group) engrafted with KG1 cells or HL60 cells were treated with DDA (20 mg/kg/day, i.p.) or solvent vehicle (control). Tumor growth was monitored over time and was analyzed for significance using repeated measures ANOVA (***P<0.001). The mean tumor volumes ± SEM are shown. e Average tumor weight at the end of the experiments in d. *P<0.5, **P<0.01, ANOVA. f Mean tumor volumes measured at the end of the experiments for HL60 and KG1 graf ted into NOD/SCID or NMRI-Fo x1 -nude mice treated with DDA (40 mg/kg/day, p.o. or 20 mg/kg/day, i.p.) or solvent vehicle (control) (n=10- 20 mice per group). […]

in vivo = assay: in vivo; design: species or system NSG mice; conditions: mouse, 20 mg/kg
Description: Administration R oute p.o. i. p. i. v.
T 1/2 distribution (h) - - 0.11*** […]
Bars represent S.E.M. ( ***P<0.001, **P<0.01, t test).
(also on this page, place not known: plasma times treatment mice administration plasma times treatment mice administration mg/kg mg/kg Summary pharmacokinetic parameters mice. were measured daily administration mg/kg days. (***P<0.001, mg/kg DDA in plasma (p.o.) (p.o.) DDA in plasma (µM) i.p. i.v. (mg/kg) 20 T1/2 0.1 T1/2 elimination 1.0 T1/2 - Bioavailability (%EP) (µM) 370 Tmax 0.002 marrow 0.01 0.1 1 10 Control DDA DDA level (µM) ***)

KG1 tumors = assay: Subcutaneous KG1 tumor xenograft; assay type: in vivo, mice
Description: Exponentially growing cells were harvested, washed twice in PBS then resuspended in PBS. SKMEL-28, shSKMEL-28 clones (5 × 10^6 cells) and B16F10 (3 × 10^5) cells were injected subcutaneously (s.c.) into the flank of nude mice. HL60, KG1 and shKG1-clones (5 × 10^6) were inoculated s.c. into the flanks of NOD/SCID mice. When tumors were palpable, animals (n = 10–20 mice per group, as indicated) were randomized to receive either DDA (20 mg/kg) intraperitoneally (i.p.) or 40 mg/kg by oral gavage (p.o), once a day, or vehicle solvent for the indicated time. Animals were examined daily and body weights were measured twice a week. In all experiments, tumor volume was determined by direct measurement with a caliper and was calculated using the formula (width^2 × length)/2. At the end of experiments, mice were sacrificed and tumors were excised and divided for intra-tumoral DDA quantification, immunoblotting, or immunohistochemistry analyses. […]
(n=16- 20 mice/group) engrafted with KG1 cells or HL60 cells were treated with DDA (20 mg/kg/day, i.p.) or solvent vehicle (control). Tumor growth was monitored over time and was analyzed for significance using repeated measures ANOVA (***P<0.001). The mean tumor volumes ± SEM are shown. e Average tumor weight at the end of the experiments in d. *P<0.5, **P<0.01, ANOVA. f Mean tumor volumes measured at the end of the experiments for HL60 and KG1 graf ted into NOD/SCID or NMRI-Fo x1 -nude mice treated with DDA (40 mg/kg/day, p.o. or 20 mg/kg/day, i.p.) or solvent vehicle (control) (n=10- 20 mice per group). Values represent the means ± S.E.M. (**P<0.01, ***P<0.001, ANOVA). g Histochemical analysis of the expression of LC3 and P62 in HL60 tumor sections isolated from NOD/SCID mice treated or not with DDA (20 mg/kg/day, i.p.). h Quantification of LC3 punctate cells in shCTRL and shLXRβ KG1 tumors. i Quantification of DDA levels in tumors 4 h after the final administration of DDA. j Box plot of TCGA RNA-seq data from patients with melanoma showing that LXRβ is the predominant LXR isoform expressed. […]

With `CC(C)CCC[C@@H](C)[C@H]1CC[C@H]2[C@@H]3C[C@@H](NCCc4cnc[nH]4)[C@@]4(O)C[C@@H](O)CC[C@]4(C)[C@H]3CC[C@]12C` [DDA, Dendrogenin A] the IC50 (A375 cells) was 1500 ± 300 nM, the IC50 (WM-266-4 cells) was 1200 ± 400 nM and the IC50 (WM35 cells) was 1400 ± 200 nM. The “NOR1 protein, densitometry relative to untreated” value (HL60 cells) was 1.9, the “Nur77 protein, densitometry relative to untreated” value (HL60 cells) was 1.8 and the Cmax (in vivo; NSG, ip) was 6.1 ± 0.95 µM. For the same molecule, the Plasma clearance (in vivo; NSG, ip) was 28 mL/min/kg, the Tmax (in vivo; NSG, ip) was 2 h and the half-life (in vivo; NSG, ip, T1/2 absorption) was 19 h. It also gave a half-life (in vivo; NSG, ip, T1/2 elimination) of 0.9 h, a Cmax (in vivo; NSG, iv) of 370 µM and a Tmax (in vivo; NSG, iv) of 0.002 h. The clearance (in vivo; NSG, iv) was 27 mL/min/kg, the half-life (in vivo; NSG, iv, T1/2 distribution) was 0.1 h and the half-life (in vivo; NSG, iv, T1/2 elimination) was 0.6 h. For the same molecule, the Cmax (in vivo; NSG, po) was 5.05 µM, the Plasma clearance (in vivo; NSG, po) was 26.2 mL/min/kg and the Tmax (in vivo; NSG, po) was 3 h. For the same molecule, the half-life (in vivo; NSG, po, T1/2 absorption) was 43 h, the half-life (in vivo; NSG, po, T1/2 elimination) was 1 h and the Bioavailability (in vivo; iv) was 100 % EP. The “Tumor volume at the end of the experiment” value (shortened to “Tumor volume at the end”) (KG1 tumors; NOD/SCID mice, DDA i.p. 20mg/kg/d (control 1249±137)) was 618±55 mm3, the “Tumor volume at the end” value (KG1 tumors; NOD/SCID mice, DDA p.o. 40mg/kg/d (control 1249±137)) was 400±68 mm3 and the “Tumor volume at the end” value (KG1 tumors; mice, DDA i.p. 20mg/kg/d (control 1134±389)) was 443±62 mm3.
